What was measured:
Fyn = Fyn (Homo sapiens, UniProt P06241); experiment: Kinase profiler assay, Fyn; format: biochemical; settings: 10 concentrations, 100 µM highest; Table S3
Experimental: The effects of LLL12 on twenty six purified human protein kinases were performed at the Millipore UK Limited (Dundee, UK) and Reaction Biology Corp. (Malvern, PA) using the Kinase profiler assay. Assays contained a peptide substrate, purified recombinant human protein kinases to be tested, and gamma-labeled ATP, magnesiumion. Radioactive phosphorylated product was measured and quantitated via a scintillation counter.

[1] = test system: MDA-MB-231 ALDH+ breast cancer stem-like cells; experiment: Mouse xenograft of MDA-MB-231 ALDH+ breast cancer stem-like cells; format: in vivo, NOD/SCID mice; settings: 5 mg/kg IP daily
Experimental: All animal studies were conducted in accordance with the principles and standard procedures approved by IACUC at the Research Institute at Nationwide Children’s Hospital and the University Committee on the Use and Care of Animals at the University of Michigan. ALDH^+ subpopulations of MDA-MB-231 and ALDH^+/CD44^+/CD24^− subpopulations of SUM-159 breast cancer cells (1×10^5) respectively were injected subcutaneous (s.c.) into the flank area of female Non-obese diabetic (NOD)/Severe combined immunodeficiency (SCID) mice which were purchased from Jackson Laboratory.

Sequence of Fyn (P06241 whole entry): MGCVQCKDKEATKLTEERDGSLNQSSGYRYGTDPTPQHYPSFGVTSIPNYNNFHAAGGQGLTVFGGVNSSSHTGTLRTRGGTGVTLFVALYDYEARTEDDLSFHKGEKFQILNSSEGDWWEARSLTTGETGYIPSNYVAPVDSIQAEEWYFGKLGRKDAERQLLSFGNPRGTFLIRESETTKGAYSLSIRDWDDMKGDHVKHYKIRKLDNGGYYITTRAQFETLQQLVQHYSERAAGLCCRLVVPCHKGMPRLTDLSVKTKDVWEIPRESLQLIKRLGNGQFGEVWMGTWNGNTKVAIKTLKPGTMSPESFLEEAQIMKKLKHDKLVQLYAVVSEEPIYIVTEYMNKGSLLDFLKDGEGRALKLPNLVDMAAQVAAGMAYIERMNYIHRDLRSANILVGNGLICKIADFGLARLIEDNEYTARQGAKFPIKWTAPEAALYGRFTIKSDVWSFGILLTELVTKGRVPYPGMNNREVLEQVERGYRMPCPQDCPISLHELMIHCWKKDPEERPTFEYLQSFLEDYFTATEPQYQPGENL

NS(=O)(=O)c1cccc2c1C(=O)c1cccc(O)c1C2=O [LLL12]
IC50 (Fyn): > 100 µM
tumor volume ([1]; 15 days, P<0.05 vs vehicle): significantly suppressed
tumor weight ([1]; 15 days, P<0.05 vs vehicle): significantly suppressed
P-STAT3 in tumor tissue ([1]; Western blot of tumors): decreased
cleaved caspase-3 in tumor tissue ([1]; Western blot of tumors): increased
